# Test results as given in patent US10072021B2, “Compound for inhibiting binding between DX2 protein and P14/ARF protein, and pharmaceutical composition for treating or preventing cancer disease containing same as effective ingredient” (PUSAN NATIONAL UNIVERSITY INDUSTRY-UNIVERSITY COOPERATION …, priority 2014, dated 2018).
# “Also recorded” adds a separate entry of the source.
# Tests used:
# DX2-p14/ARF binding = biological target: T1, DX2-p14/ARF binding (Homo sapiens, UniProt Q13155); experiment: GST pull-down assay of DX2-p14/ARF binding; details: FIG. 2A, 3A, 3D, 3E
# T1 construct: made in house; host or cells: E. coli BL21(DE3) for GST-p14/ARF; DX2 from 'cell lysate or recombinant protein'
# T1 sequence (Q13155 1-251 isoform Q13155-2): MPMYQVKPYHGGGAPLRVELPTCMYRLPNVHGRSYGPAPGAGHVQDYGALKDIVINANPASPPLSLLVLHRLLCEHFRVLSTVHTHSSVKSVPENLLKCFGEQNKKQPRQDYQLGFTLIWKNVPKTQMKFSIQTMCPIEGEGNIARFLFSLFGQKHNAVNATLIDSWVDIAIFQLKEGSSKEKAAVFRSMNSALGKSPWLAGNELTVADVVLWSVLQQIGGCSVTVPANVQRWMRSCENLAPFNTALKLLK
# Text: Through GST pull-down assays, more specific binding inhibitors were selected among the previously screened candidate drugs as DX2-p14/ARF binding inhibitors. That is, a p14/ARF fragment (full-length) was ligated into EcoRI and Hind II sites of pGEX-TEV vector, which is a modified vector by adding a TEV protease cleavage site to pGEX-4T1. The recombinant proteins were then expressed in E. coli strain BL21(DE3) as GST-fusion proteins. The proteins were purified by glutathione affinity chromatography.
# To address direct binding between the two proteins, agarose-bead conjugated GST (negative control) or GST-target protein was incubated with cell lysate or recombinant protein in radioimmunoprecipitation assay (RIPA) buffer (NaCl, 25 mM Tris-Cl, 1% NP-40, 1% sodium deoxycholate, 0.1% SDS, protease inhibitor mixture) for 1 hour at a temperature of 4° C. for a reaction.
# H69 and H322 cells = experiment: Sensitivity of lung cancer cell lines to combinational treatment with Adriamycin and SLCB050; format: cell-based, human; details: combinational treatment with Adriamycin, FIG. 8C
# Protocol: By MTT assay, anticancer effects were confirmed based on viability of tumor cells. That is, cells were incubated in 0.5 mg/ml of MTT solution for 4 hours at a temperature of 37° C. for a reaction, and then, formazen products formed therefrom were dissolved in dimethyl sulfoxide (DMSO). Then, absorbance thereof was measured at 540 nm by using a spectrometer.
# DX2 and p14/ARF = experiment: Localization and levels of DX2 and p14/ARF in cells after treatment (western blot); format: cell-based, human
smiles,measurement,setting,value
"CC1(C)Oc2cc3oc(=O)ccc3cc2C[C@@H]1OC(=O)/C=C/c1ccco1 [SLCB050, (7S)-(+)-3-(2-Furanyl)-acrylic acid, 8,8-dimethyl-2-oxo-6,7-dihydro-2H,8H-pyrano[3,2-g]chromen-7-yl-ester]",inhibitory effect on DX2-p14/ARF binding,DX2-p14/ARF binding,completely blocked; also recorded: showed inhibitory effects on DX2-p14/ARF binding
same,sensitivity to Adriamycin in SCLC cell line H69,H69 and H322 cells,sensitivity to Adriamycin improved
same,sensitivity to Adriamycin in p14/ARF-deficient H322 cells,H69 and H322 cells,did not show improved sensitivity
same,localization of DX2 and p14/ARF,"DX2 and p14/ARF; 10 μM, 6 hours, nucleoplasm, FIG. 4B",DX2 was decreased and p14/ARF was increased in the nucleoplasm
same,DX2 and p14/ARF levels,"DX2 and p14/ARF; NSCLC cell line H1299 and SCLC cell line H69, FIG. 4C","decreases DX2, but increases p14/ARF"
same,DX2 levels in p14/ARF-deficient cells,"DX2 and p14/ARF; p14/ARF-deficient H322 cells (H322, H460, A549), FIG. 4D",reduction of DX2; also recorded: DX2 levels decreased considerably
